pKi: −log10 of the molar value. Values after ≈ are worked out from the molar mass of the structure shown. Read-outs that look alike come from different tables or passages of the source.
How the values were obtained:
LipR = format: biochemical; settings: pNPC4
Cut6 = Cut6 (Mycobacterium tuberculosis, UniProt O53581); assay: biochemical; format: biochemical; settings: for x I50: inhibitor molar excess leading to 50% residual activity after 10 min incubation
LipU = LipU (Mycobacterium tuberculosis, UniProt O53424); assay: biochemical; format: biochemical; settings: for x I50: inhibitor molar excess leading to 50% residual activity after 10 min incubation
LipC = LipC (Mycobacterium tuberculosis, UniProt P96402); assay: biochemical; format: biochemical; settings: for x I50: inhibitor molar excess leading to 50% residual activity after 10 min incubation; for Residual activity (%) 10 min: 10 min incubation; for Residual activity (%) 30 min: 30 min incubation
LipN = assay: Inhibition of recombinant LipN, pre-incubation method, residual activity on pNPC4; format: biochemical, M. tuberculosis; settings: for Residual activity (%) 10 min / Residual activity (%) 30 min: pNPC4
LipY = target: T1, LipY (Mycobacterium tuberculosis, UniProt I6Y2J4); assay: biochemical; format: biochemical, M. tuberculosis; settings: for pKi: Apparent K i
T1 sequence (I6Y2J4 1-437): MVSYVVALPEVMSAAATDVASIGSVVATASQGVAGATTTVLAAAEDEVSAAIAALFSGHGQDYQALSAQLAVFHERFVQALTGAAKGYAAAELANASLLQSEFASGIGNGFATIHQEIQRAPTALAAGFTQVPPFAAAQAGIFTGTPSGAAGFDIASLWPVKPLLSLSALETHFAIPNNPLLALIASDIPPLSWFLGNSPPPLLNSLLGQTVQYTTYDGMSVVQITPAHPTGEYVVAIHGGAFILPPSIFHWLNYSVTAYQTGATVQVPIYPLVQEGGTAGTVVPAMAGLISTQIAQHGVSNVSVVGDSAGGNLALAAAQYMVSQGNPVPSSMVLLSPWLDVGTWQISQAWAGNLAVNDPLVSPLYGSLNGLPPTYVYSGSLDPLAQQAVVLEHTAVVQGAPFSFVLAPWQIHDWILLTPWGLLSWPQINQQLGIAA

[1] = system: M. bovis BCG strain Pasteur 1173P2; assay: microbe, parasite or virus in culture; format: cell-based; settings: Mycobacterium tuberculosis variant bovis BCG
LipI = LipI (Mycobacterium tuberculosis, UniProt P71668); assay: biochemical; format: biochemical; settings: for x I50: inhibitor molar excess leading to 50% residual activity after 10 min incubation; for Residual activity (%) 10 min: 10 min incubation; for Residual activity (%) 30 min: 30 min incubation
LipH = format: biochemical; settings: pNPC4
LipF = format: biochemical; settings: for Residual activity (%) 10 min / Residual activity (%) 30 min: pNPC4
Lip-HSL enzymes = assay: Inhibition of all Lip-HSL enzymes tested, pre-incubation method, residual activity on pNPC4 (statements for the family); format: biochemical
LipW = format: biochemical; settings: pNPC4
[2] = system: M. tuberculosis strain mc^27000; assay: microbe, parasite or virus in culture; format: cell-based; settings: Mycobacterium tuberculosis
[3] = LipC, near stoichiometric proportions of inhibitor (x I<2)
[4] = near stoichiometric proportions of inhibitor (x I<2)
[5] = LipI, near stoichiometric proportions of inhibitor (x I<2)

Sequence of Cut6 (O53581 44-336): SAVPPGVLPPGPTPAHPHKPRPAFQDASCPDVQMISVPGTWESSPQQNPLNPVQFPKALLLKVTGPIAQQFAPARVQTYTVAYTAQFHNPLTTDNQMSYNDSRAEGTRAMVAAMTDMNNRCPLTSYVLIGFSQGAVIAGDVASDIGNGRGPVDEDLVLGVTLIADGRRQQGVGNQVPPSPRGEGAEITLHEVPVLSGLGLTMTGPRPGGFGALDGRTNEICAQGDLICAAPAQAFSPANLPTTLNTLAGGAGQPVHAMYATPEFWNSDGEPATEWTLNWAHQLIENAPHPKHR
Sequence of LipC (P96402 whole entry): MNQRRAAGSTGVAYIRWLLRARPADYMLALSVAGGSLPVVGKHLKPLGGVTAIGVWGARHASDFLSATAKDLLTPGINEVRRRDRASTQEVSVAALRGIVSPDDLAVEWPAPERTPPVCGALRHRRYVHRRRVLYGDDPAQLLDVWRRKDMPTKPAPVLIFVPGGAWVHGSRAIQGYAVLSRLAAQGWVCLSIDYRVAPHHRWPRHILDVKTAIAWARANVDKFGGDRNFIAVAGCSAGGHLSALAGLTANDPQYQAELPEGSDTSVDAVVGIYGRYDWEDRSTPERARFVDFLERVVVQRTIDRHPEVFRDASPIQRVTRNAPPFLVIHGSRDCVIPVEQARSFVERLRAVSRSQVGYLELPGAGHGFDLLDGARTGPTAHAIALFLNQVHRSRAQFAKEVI
Sequence of LipI (P71668 whole entry): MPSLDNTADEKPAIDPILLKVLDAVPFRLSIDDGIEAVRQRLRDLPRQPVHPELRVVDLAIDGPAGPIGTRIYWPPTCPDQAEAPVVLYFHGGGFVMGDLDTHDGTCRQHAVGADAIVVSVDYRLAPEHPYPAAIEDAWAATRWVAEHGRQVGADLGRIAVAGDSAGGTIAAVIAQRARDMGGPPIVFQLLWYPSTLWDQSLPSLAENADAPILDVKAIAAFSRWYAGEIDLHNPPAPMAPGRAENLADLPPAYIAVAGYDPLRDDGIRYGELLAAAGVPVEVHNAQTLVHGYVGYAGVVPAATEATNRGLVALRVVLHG
Sequence of LipU (O53424 whole entry): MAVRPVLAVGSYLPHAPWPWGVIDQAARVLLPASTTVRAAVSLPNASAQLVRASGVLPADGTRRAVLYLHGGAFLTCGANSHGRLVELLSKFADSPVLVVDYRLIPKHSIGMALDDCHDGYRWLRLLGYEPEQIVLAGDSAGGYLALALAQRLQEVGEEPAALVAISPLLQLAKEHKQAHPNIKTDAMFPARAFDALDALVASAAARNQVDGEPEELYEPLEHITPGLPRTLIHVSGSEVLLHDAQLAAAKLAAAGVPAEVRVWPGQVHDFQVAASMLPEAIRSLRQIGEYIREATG

## COc1nn(-c2cccc(Oc3ccccc3)c2)c(=O)o1 [MmPPOX, 5-methoxy-N-3-(meta-phenoxyphenyl)-1,3,4-oxadiazol-2(3H)-one]
LipR; x I = 20, 10 min incubation
  Residual activity (%) 10 min: 7%
LipR; x I = 20, 30 min incubation
  Residual activity (%) 30 min: 15%
Cut6; Apparent K i, Cut6, pNPC4
  pKi: < 3.00
Cut6; Apparent K i, Cut6, pNPC4, value of the text
  pKi: 2.19
Cut6; Cut6, calculated as x I50 (THL)/x I50 (MmPPOX)
  x I50 ratio: <0.1
Cut6; Cut6, pNPC4
  x I50: 227.9
Cut6; Cut6, x I = 20
  Activity in the presence of inhibitor: retained full activity
Cut6; Cut6, x I = 20, 10 min incubation, pNPC4
  Residual activity (%) 10 min: 100%
Cut6; Cut6, x I = 20, 30 min incubation, pNPC4
  Residual activity (%) 30 min: 100%
Cut6; Cut6 vs Lip-HSL proteins
  Apparent K i for Cut6 relative to those of Lip-HSL proteins (times higher): about 1000
LipU; Apparent K i, pNPC4
  pKi: 5.29
LipU; calculated as x I50 (THL)/x I50 (MmPPOX)
  x I50 ratio: >333
LipU; pNPC4
  x I50: 1.5
LipU; x I = 20, 10 min incubation, pNPC4
  Residual activity (%) 10 min: 10%
LipU; x I = 20, 30 min incubation, pNPC4
  Residual activity (%) 30 min: 17%
LipC
  pKi: 6.00
LipC; LipC, calculated as x I50 (THL)/x I50 (MmPPOX)
  x I50 ratio: >10^3
LipC; LipC, pNPC4
  x I50: 0.5
LipC; [3]
  Half inactivation time (t1/2): < 1 min
  Remaining activities: < 10%
LipC; LipC, x I = 2, pNPC4
  Residual activity (%) 10 min: 7%
  Residual activity (%) 30 min: 5%
LipC; LipC, x I = 5, pNPC4
  Residual activity (%) 10 min: 0%
  Residual activity (%) 30 min: 0%
LipN; [4]
  Half inactivation time (t1/2): < 1 min
  Remaining activities: < 10%
LipN; x I = 2, 10 min incubation
  Residual activity (%) 10 min: 6%
LipN; x I = 2, 30 min incubation
  Residual activity (%) 30 min: 6%
LipN; x I = 5, 10 min incubation
  Residual activity (%) 10 min: 0%
LipN; x I = 5, 30 min incubation
  Residual activity (%) 30 min: 0%
LipY
  Residual activity (%) 10 min: 5%
  Residual activity (%) 30 min: 5%
  x I50 ratio: 0.4
  pKi: 5.11
[1]
  MIC: 10 to 20 mg/L (≈ 35.2 to 70.4 µM)
LipI
  pKi: 7.00
LipI; LipI, calculated as x I50 (THL)/x I50 (MmPPOX)
  x I50 ratio: 131.8
LipI; LipI, pNPC4
  x I50: 0.5
LipI; [5]
  Half inactivation time (t1/2): < 1 min
  Remaining activities: < 10%
LipI; LipI, x I = 1, pNPC4
  Residual activity (%) 10 min: 7%
  Residual activity (%) 30 min: 6%
LipI; LipI, x I = 2, pNPC4
  Residual activity (%) 10 min: 0%
  Residual activity (%) 30 min: 0%
LipH; x I = 5, 10 min incubation
  Residual activity (%) 10 min: 9%
LipH; x I = 5, 30 min incubation
  Residual activity (%) 30 min: 9%
LipH; x I = 10, 10 min incubation
  Residual activity (%) 10 min: 0%
LipH; x I = 10, 30 min incubation
  Residual activity (%) 30 min: 0%
LipF; [4]
  Half inactivation time (t1/2): < 1 min
  Remaining activities: < 10%
LipF; x I = 1, 10 min incubation
  Residual activity (%) 10 min: 7%
LipF; x I = 1, 30 min incubation
  Residual activity (%) 30 min: 11%
LipF; x I = 2, 10 min incubation
  Residual activity (%) 10 min: 0%
LipF; x I = 2, 30 min incubation
  Residual activity (%) 30 min: 0%
Lip-HSL enzymes; LipF, LipR, LipU and LipW
  Activity restoration: increase of residual activity after 30 min as compared to 10 min: 4–8%
Lip-HSL enzymes; all Lip-HSL enzymes tested, x I = 20
  Half inactivation time (t1/2): < 1 min
Lip-HSL enzymes; all Lip-HSL enzymes tested, x I = 20, 10 min incubation, pNPC4
  Remaining activities: less than 15%
LipW; x I = 20, 10 min incubation
  Residual activity (%) 10 min: 6%
LipW; x I = 20, 30 min incubation
  Residual activity (%) 30 min: 13%
[2]
  MIC: ~25 mg/L (≈ 87.9 µM)

## CCCCCCCCCCC[C@@H](C[C@@H]1OC(=O)[C@H]1CCCCCC)OC(=O)[C@H](CC(C)C)NC=O [THL, Tetrahydrolipstatin]
Cut6; Cut6, pNPC4
  x I50: 9.7
Cut6; Cut6, pNPC4, read-out: Apparent K i
  pKi: 3.85
LipU; pNPC4
  x I50: >500
LipU; pNPC4, read-out: Apparent K i
  pKi: < 3.00
LipC; LipC, pNPC4
  x I50: >500
LipC; LipC, pNPC4, read-out: Apparent K i
  pKi: < 3.00
LipY
  pKi: 5.49
[1]
  MIC: 7.5 mg/L (≈ 15.1 µM)
LipI; LipI, pNPC4
  x I50: 65.9
LipI; LipI, pNPC4, read-out: Apparent K i
  pKi: 4.88
[2]
  MIC: 20 mg/L (≈ 40.3 µM)
